Laboratory results published in patent US20210284952A1, “METHODS OF APPLYING ACETATE TOXICITY AND INDUCING ACETATE UPTAKE IN MICROALGAE CULTURES” (HELIAE DEVELOPMENT LLC, priority 2016, published 2021).
Where two headings read alike, the source gives them in different places.

Assays:
Chlorella sp. HS26 [1] = system: Chlorella sp. HS26
Description: Cultures of Chlorella sp. […] 100 mL volume cultures were prepared in 250 mL flasks, and cultured at a pH of 7.5, temperature of 25° C., a shaking frequency of 100 rpm, and a light intensity of 100 μM photon/m^2 s for 7 days (168 hours).

Chlorella sp. HS26 [2] = details: for Cell Dry Weight of Chlorella: 2.4 g/L
Description: This experiment was conducted to determine the effect of different culture medium pH levels on the growth of Chlorella sp. HS26 at a constant culture medium acetate concentration. Duplicate 100 ml flasks of axenic cultures of Chlorella were adjusted to initial pH levels of 2.5, 3.5, 4.5, 5.5, 6.5, 7.0, 7.5, 8.5, 9.5, and 10.5. The culture pH was adjusted using either hydrochloric acid (HCl) or sodium hydroxide (NaOH). […] Samples of the flask culture were taken initially and every other day over a six day period (144 hours).

**Q.** `CC(=O)[O-].[Na+]` [Sodium Acetate, sodium acetate] was tested. Which growth (Chlorella sp. HS26 [1]; 2.5 g/L sodium acetate) did it give?
**A.** 0.620 g/L day

**Q.** What about the “time to reach exponential phase” value (Chlorella sp. HS26 [1]; 2.5 g/L sodium acetate) of the same molecule?
**A.** 48 h

**Q.** And the growth (Chlorella sp. HS26 [1]; 5 g/L sodium acetate)?
**A.** 0.065 g/L day

**Q.** And the Chlorella dry weights (Chlorella sp. HS26 [1]; sodium acetate 2.5 g/L, 0 h)?
**A.** 0.12 g/L

**Q.** And the Chlorella dry weights (Chlorella sp. HS26 [1]; sodium acetate 2.5 g/L, 24 h)?
**A.** 0.23 g/L

**Q.** And the Chlorella dry weights (Chlorella sp. HS26 [1]; sodium acetate 2.5 g/L, 48 h)?
**A.** 0.85 g/L

**Q.** What about the Chlorella dry weights (Chlorella sp. HS26 [1]; sodium acetate 2.5 g/L, 72 h) of the same molecule?
**A.** 1.10 g/L

**Q.** And the Chlorella dry weights (Chlorella sp. HS26 [1]; sodium acetate 2.5 g/L, 144 h)?
**A.** 2.72 g/L

**Q.** And the Chlorella dry weights (Chlorella sp. HS26 [1]; sodium acetate 2.5 g/L, 168 h)?
**A.** 3.23 g/L

**Q.** And the Chlorella dry weights (Chlorella sp. HS26 [1]; sodium acetate 5 g/L, 0 h)?
**A.** 0.12 g/L

**Q.** And the Chlorella dry weights (Chlorella sp. HS26 [1]; sodium acetate 5 g/L, 24 h)?
**A.** 0.19 g/L

**Q.** And the Chlorella dry weights (Chlorella sp. HS26 [1]; sodium acetate 5 g/L, 48 h)?
**A.** 0.25 g/L

**Q.** And the Chlorella dry weights (Chlorella sp. HS26 [1]; sodium acetate 5 g/L, 72 h)?
**A.** 0.55 g/L

**Q.** What about the Chlorella dry weights (Chlorella sp. HS26 [1]; sodium acetate 5 g/L, 144 h) of the same molecule?
**A.** 1.89 g/L

**Q.** What about the Chlorella dry weights (Chlorella sp. HS26 [1]; sodium acetate 5 g/L, 168 h) of the same molecule?
**A.** 2.41 g/L

**Q.** And the Chlorella dry weights (Chlorella sp. HS26 [1]; sodium acetate 10 g/L, 0 h)?
**A.** 0.12 g/L

**Q.** What about the Chlorella dry weights (Chlorella sp. HS26 [1]; sodium acetate 10 g/L, 24 h) of the same molecule?
**A.** 0.13 g/L

**Q.** And the Chlorella dry weights (Chlorella sp. HS26 [1]; sodium acetate 10 g/L, 48 h)?
**A.** 0.16 g/L

**Q.** What about the Chlorella dry weights (Chlorella sp. HS26 [1]; sodium acetate 10 g/L, 72 h) of the same molecule?
**A.** 0.11 g/L

**Q.** And the Chlorella dry weights (Chlorella sp. HS26 [1]; sodium acetate 10 g/L, 144 h)?
**A.** 0.09 g/L

**Q.** And the Chlorella dry weights (Chlorella sp. HS26 [1]; sodium acetate 10 g/L, 168 h)?
**A.** 0.00 g/L

**Q.** What about the Chlorella dry weights (Chlorella sp. HS26 [1]; sodium acetate 20 g/L, 0 h) of the same molecule?
**A.** 0.12 g/L

**Q.** What about the Chlorella dry weights (Chlorella sp. HS26 [1]; sodium acetate 20 g/L, 24 h) of the same molecule?
**A.** 0.16 g/L

**Q.** And the Chlorella dry weights (Chlorella sp. HS26 [1]; sodium acetate 20 g/L, 48 h)?
**A.** 0.13 g/L

**Q.** What about the Chlorella dry weights (Chlorella sp. HS26 [1]; sodium acetate 20 g/L, 72 h) of the same molecule?
**A.** 0.12 g/L

**Q.** And the Chlorella dry weights (Chlorella sp. HS26 [1]; sodium acetate 20 g/L, 144 h)?
**A.** 0.07 g/L

**Q.** What about the Chlorella dry weights (Chlorella sp. HS26 [1]; sodium acetate 20 g/L, 168 h) of the same molecule?
**A.** 0.00 g/L

**Q.** And the Chlorella dry weights (Chlorella sp. HS26 [1]; sodium acetate 30 g/L, 0 h)?
**A.** 0.12 g/L

**Q.** What about the Chlorella dry weights (Chlorella sp. HS26 [1]; sodium acetate 30 g/L, 24 h) of the same molecule?
**A.** 0.14 g/L

**Q.** And the Chlorella dry weights (Chlorella sp. HS26 [1]; sodium acetate 30 g/L, 48 h)?
**A.** 0.11 g/L

**Q.** And the Chlorella dry weights (Chlorella sp. HS26 [1]; sodium acetate 30 g/L, 72 h)?
**A.** 0.09 g/L

**Q.** What about the Chlorella dry weights (Chlorella sp. HS26 [1]; sodium acetate 30 g/L, 144 h) of the same molecule?
**A.** 0.08 g/L

**Q.** What about the Chlorella dry weights (Chlorella sp. HS26 [1]; sodium acetate 30 g/L, 168 h) of the same molecule?
**A.** 0.00 g/L

**Q.** And the Chlorella dry weights (Chlorella sp. HS26 [1]; sodium acetate 40 g/L, 0 h)?
**A.** 0.12 g/L

**Q.** What about the Chlorella dry weights (Chlorella sp. HS26 [1]; sodium acetate 40 g/L, 24 h) of the same molecule?
**A.** 0.11 g/L

**Q.** What about the Chlorella dry weights (Chlorella sp. HS26 [1]; sodium acetate 40 g/L, 48 h) of the same molecule?
**A.** 0.09 g/L

**Q.** And the Chlorella dry weights (Chlorella sp. HS26 [1]; sodium acetate 40 g/L, 72 h)?
**A.** 0.10 g/L

**Q.** And the Chlorella dry weights (Chlorella sp. HS26 [1]; sodium acetate 40 g/L, 144 h)?
**A.** 0.09 g/L

**Q.** And the Chlorella dry weights (Chlorella sp. HS26 [1]; sodium acetate 40 g/L, 168 h)?
**A.** 0.00 g/L

**Q.** What about the acetate concentration tolerance (Chlorella sp. HS26 [1]; sodium acetate in the culture, pH 7.5) of the same molecule?
**A.** approximately 7.5 g/L

**Q.** And the “cell dry weight over time” value (Chlorella sp. HS26 [2]; 2.4 g/L sodium acetate, pH of 5.5 or lower)?
**A.** did not increase over time

**Q.** And the “Cell Dry Weight of Chlorella” value (Chlorella sp. HS26 [2]; initial pH 2.5, 0 h)?
**A.** 0.6 g/L

**Q.** What about the “Cell Dry Weight of Chlorella” value (Chlorella sp. HS26 [2]; initial pH 2.5, 24 h) of the same molecule?
**A.** 0.5 g/L

**Q.** What about the “Cell Dry Weight of Chlorella” value (Chlorella sp. HS26 [2]; initial pH 2.5, 48 h) of the same molecule?
**A.** 0.5 g/L

**Q.** And the “Cell Dry Weight of Chlorella” value (Chlorella sp. HS26 [2]; initial pH 3.5, 0 h)?
**A.** 0.6 g/L

**Q.** What about the “Cell Dry Weight of Chlorella” value (Chlorella sp. HS26 [2]; initial pH 3.5, 24 h) of the same molecule?
**A.** 0.5 g/L

**Q.** And the “Cell Dry Weight of Chlorella” value (Chlorella sp. HS26 [2]; initial pH 3.5, 48 h)?
**A.** 0.5 g/L

**Q.** What about the “Cell Dry Weight of Chlorella” value (Chlorella sp. HS26 [2]; initial pH 4.5, 0 h) of the same molecule?
**A.** 0.6 g/L

**Q.** And the “Cell Dry Weight of Chlorella” value (Chlorella sp. HS26 [2]; initial pH 4.5, 24 h)?
**A.** 0.5 g/L

**Q.** What about the “Cell Dry Weight of Chlorella” value (Chlorella sp. HS26 [2]; initial pH 4.5, 48 h) of the same molecule?
**A.** 0.4 g/L

**Q.** What about the “Cell Dry Weight of Chlorella” value (Chlorella sp. HS26 [2]; initial pH 5.5, 0 h) of the same molecule?
**A.** 0.6 g/L

**Q.** What about the “Cell Dry Weight of Chlorella” value (Chlorella sp. HS26 [2]; initial pH 5.5, 24 h) of the same molecule?
**A.** 0.6 g/L

**Q.** What about the “Cell Dry Weight of Chlorella” value (Chlorella sp. HS26 [2]; initial pH 5.5, 48 h) of the same molecule?
**A.** 0.6 g/L

**Q.** What about the “Cell Dry Weight of Chlorella” value (Chlorella sp. HS26 [2]; initial pH 5.5, 96 h) of the same molecule?
**A.** 0.4 g/L

**Q.** And the “Cell Dry Weight of Chlorella” value (Chlorella sp. HS26 [2]; initial pH 6.5, 0 h)?
**A.** 0.6 g/L

**Q.** And the “Cell Dry Weight of Chlorella” value (Chlorella sp. HS26 [2]; initial pH 6.5, 24 h)?
**A.** 0.8 g/L

**Q.** And the “Cell Dry Weight of Chlorella” value (Chlorella sp. HS26 [2]; initial pH 6.5, 48 h)?
**A.** 1.8 g/L

**Q.** What about the “Cell Dry Weight of Chlorella” value (Chlorella sp. HS26 [2]; initial pH 6.5, 96 h) of the same molecule?
**A.** 4.3 g/L

**Q.** And the “Cell Dry Weight of Chlorella” value (Chlorella sp. HS26 [2]; initial pH 6.5, 144 h)?
**A.** 6.0 g/L

**Q.** And the “Cell Dry Weight of Chlorella” value (Chlorella sp. HS26 [2]; initial pH 7.5, 0 h)?
**A.** 0.6 g/L

**Q.** And the “Cell Dry Weight of Chlorella” value (Chlorella sp. HS26 [2]; initial pH 7.5, 24 h)?
**A.** 0.6 g/L

**Q.** And the “Cell Dry Weight of Chlorella” value (Chlorella sp. HS26 [2]; initial pH 7.5, 48 h)?
**A.** 1.7 g/L

**Q.** And the “Cell Dry Weight of Chlorella” value (Chlorella sp. HS26 [2]; initial pH 7.5, 96 h)?
**A.** 4.4 g/L

**Q.** And the “Cell Dry Weight of Chlorella” value (Chlorella sp. HS26 [2]; initial pH 7.5, 144 h)?
**A.** 6.0 g/L
